The values that follow come from patent publication US7335373B2, “Biocidal siloxane coating material containing N-halogenated amine and amide functional groups” (Auburn University, priority 2003, dated 2008).

A short description of data set [1]: Oxidative chlorine loading by iodometric/thiosulfate titration. The following applies: cotton fabric treated directly with 2% by weight TTDD, chlorinated in 10 vol % bleach at pH 8 for 30 minutes.
For data set [2] the following is noted: after 5 washing cycles.

As for `CC1(C)CC2(CC(C)(C)N1)NC(=O)NC2=O` [TTDD], the “Cl^+ loading” value in data set [1] turned out to be 0.57%. Also, the “titratable chlorine after washing” value in data set [2] (TTDD-treated chlorinated cotton fabric) is “no titratable chlorine”. For the same molecule, the rechlorination after washing entry in data set [2] (TTDD-treated cotton fabric) is “could not be rechlorinated”.
